{"source": "patent US11033518B2", "about": "“Pharmaceutical composition containing niclosamide for treating axin-GSK3 interaction-related diseases” (BAOBAB PHARM CO., LTD., priority 2017, dated 2021)", "key": {"[1]": {"target": "T1, recombinant GSK3 beta - Axin peptide interaction (Homo sapiens, UniProt P49841)", "T1 construct": "made in house; host or cells: Sf9 insect cells (GSK3 beta); The peptide was synthesized by Peptron", "T1 sequence (P49841 whole entry)": "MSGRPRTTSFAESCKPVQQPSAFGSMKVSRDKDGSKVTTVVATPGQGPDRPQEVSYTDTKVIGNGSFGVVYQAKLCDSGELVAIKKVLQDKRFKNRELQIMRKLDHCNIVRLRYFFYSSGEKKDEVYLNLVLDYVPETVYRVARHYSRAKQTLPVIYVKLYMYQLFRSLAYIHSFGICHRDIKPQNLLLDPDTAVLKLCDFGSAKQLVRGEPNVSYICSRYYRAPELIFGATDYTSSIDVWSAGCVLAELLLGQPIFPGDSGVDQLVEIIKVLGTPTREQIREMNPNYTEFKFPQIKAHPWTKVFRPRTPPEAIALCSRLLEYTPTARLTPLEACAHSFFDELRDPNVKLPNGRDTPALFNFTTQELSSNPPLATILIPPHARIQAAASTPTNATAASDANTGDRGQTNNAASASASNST", "test": "Competitive binding of FITC-linked 19-mer Axin peptide to recombinant GSK3 (fluorometry)", "details": "2 hours, Ni-Ti beads", "description": "Since it was disclosed that the hydrophobic residues of alpha helix of Axin were accumulated to the hydrophobic groove formed by the C-terminal loop of GSK3, in the result of structural analysis of Axin-GSK3 binding announced in the past (Dajani R et al., EMBO J. 22:494-501, 2003), the present inventors hypothesized that niclosamide binds to the hydrophobic groove of GSK3 and interferes with the function of Axin, and in order to confirm it, they designed in vitro analysis to confirm competitive inhibition by niclosamide of recombinant GSK3 which binds to a 19-mer FITC-linked Axin peptide.\nHis-tagged recombinant GSK3 beta was obtained from sf9 insect cells by the known method (Lee D G, et al. Nat Commun. 5:4423, 2014). The FITC-linked 19-mer Axin peptide known to bind to GSK3 as amphipathic alpha-helix (Axin1, 383-401, VEPQKFAEELIHRLEAVQR) was chemically synthesized (Peptron). In order to confirm competitive binding of the synthesized Axin peptide and niclosamide, His-tagged recombinant GSK3 and […] were treated with niclosamide for 2 hours, and were washed with PBS 3 times and then quantitative fluorometry was performed using […]. The fluorescence strength was shown in proportion to the fluorescence strength obtained in the negative control group from 3 times of experiments."}, "[2]": {"tested_on": "TCF/LEF transcriptional activity induced by mutant APC", "test": "TCF/LEF transcriptional activity in 293 cell transformed by mutant APC", "format": "cell-based", "details": "0, 0.125, 0.25, 0.5 μM, 24 hours", "protocol": "Based on the results of Examples 2-5 that niclosamide inhibited Wnt activity and EMT through Axin-GSK3 inhibition, whether niclosamide could attenuate the TCF/LEF transcriptional activity induced by mutant APC was confirmed.\nAfter transforming the mutant APC expression vector, pCMV-neo-Bam APC 1-1309 (#16508, Addgene) or pCMV-neo-BamAPC 1-1941 (#16510, Addgene) and Topflash reporter vector to 293 cell (ATCC), niclosamide (0 μM, 0.125 μM, 0.25 μM and 0.5 μM) was treated for 24 hours. The TCF/LEF transcriptional activity was quantified by measuring the luciferase activity as same as Example 2."}, "Snail, E-cadherin [3]": {"tested_on": "Snail, E-cadherin", "test": "Immunoblot of Snail and E-cadherin in SW480 xenograft tumor", "format": "in vivo, mice", "details": "50 mg/kg, 200 mg/kg intraperitoneally for 3 days", "protocol": "In order to investigate in vivo MoA of niclosamide controlling Snail-mediated EMT, through xenografts, the change of protein amount of Snail and E-cadherin in the tumor by niclosamide treatment was confirmed. The colorectal cancer cell line, SW480 cells (5×10^6) were subcutaneously injected to nude mice. When the tumor size became 500 mm^3 on average, mice were randomly divided into 3 groups, and a vehicle or niclosamide (50 mg/kg, 200 mg/kg) was intraperitoneally injected for 3 days. After sacrificing mice, the tumor tissue part was separated using Pro-prep protein extraction solution (#17081, Intron), and the amount of protein of Snail and E-cadherin in the tumor sample was measured by immunoblot assay."}, "Axin2-GSK3 complex": {"target": "T2, Axin2-GSK3 complex (Homo sapiens, UniProt P49841)", "T2 construct": "Triton X-100 lysates of total cells; endogenous in cells; host or cells: MCF-7 cells; GSK3 is endogenous; His-tagged Axin2 comes from a transfected doxycycline-inducible vector", "T2 sequence (P49841 whole entry, one chain of several)": "as the sequence (P49841 whole entry) above", "test": "Immunoprecipitation of His-tagged Axin2 from MCF-7 cell lysates", "format": "binding", "details": "total cell lysates of MCF-7 expressing His-tagged Axin2", "protocol": "In order to confirm whether niclosamide could inhibit Axin-GSK3 interaction, to perform an immunoprecipitation experiment under the condition with or without niclosamide, cell lysates having full-length Axin2 were investigated.\nThe immunoprecipitation assay was performed as follows (Yook J I, et al. Nat Cell Biol. 8:1398-1406, 2006).\nThe doxycycline-induced His-tagged Axin2 expression vector was transformed to MCF-7 cell (ATCC, American Type Culture Collection) and was cultured, and was reacted by treating […] (Invitrogen) and niclosamide of each concentration to Triton X-100 lysates of total cells. The protein recovered in beads was subjected to SDS-PAGE, followed by immunoblot analysis, and a control group of 1/20 volume was added."}, "Snail, E-cadherin [4]": {"tested_on": "Snail, E-cadherin", "test": "Snail western blot and E-cadherin dual luciferase assay in colorectal cancer cells", "format": "cell-based", "details": "as concentration increased", "description": "In order to confirm whether niclosamide induced snail-mediated EMT recovery, beta-catenin (β-catenin) expression and TCF/LEF reporter (Topflash) activity change, and Snail and E-cadherin protein expression were confirmed.\nThrough the western blot, Snail expression change was confirmed, and through the dual luciferase assay system, the expression of E-cadherin protein was confirmed."}, "HCT116 and SW480 cells": {"tested_on": "HCT116 and SW480 cells", "test": "Tumor growth of HCT116 and SW480 cells injected into nude mice", "format": "in vivo", "details": "intraperitoneal administration daily", "protocol": "Next, the effect of niclosamide having tumor formation potential in vivo experiment of HCT116 and SW480 cells was investigated.\nColorectal cancer cell lines HCT116 (5×10^6 cells) and SW480 (5×10^6 cells) were mixed in 100 μl PBS and were injected into flank subcutaneous tissues in female athymic nude mice (6 weeks old). Mice were randomly assigned to two groups and a vehicle and niclosamide were intraperitoneally injected daily and they were treated for […]. Niclosamide was dissolved with 10% Cremophor EL (BASF) and 0.9% NaCl and then was intraperitoneally injected. After injection of colorectal cancer cells, mice were observed daily and the weight change was measured twice a week. In addition, when a tumor was observed, it was measured with calipers. The tumor size was calculated by the equation (LXW2)/2. Herein, L is a long diameter of the tumor and W is a short diameter."}, "[5]": {"tested_on": "colorectal cancer cell lines HCT116, SW480 and DLD-1", "test": "Trypan blue cell viability / apoptosis of colorectal cancer cells", "format": "cell-based", "details": "48 hours, trypan blue assay", "protocol": "1×10^5 cells of colorectal cancer cell lines HCT116, SW480 and DLD-1 cell (ATCC, American Type Culture Collection) were cultured overnight in a 6-well plate, and then were washed with PBS, and were cultured in a culture medium treated with niclosamide by each concentration (0 μM, 0.125 μM, 0.25 μM, 0.5 μM, 1 μM, 2 μM, 5 μM and 10 μM) for 48 hours. Apoptosis was measured with trypan blue assay and cell viability was calculated by an equation [1−(number of dead cells/total number of cells)]."}, "beta-catenin (β-catenin)": {"tested_on": "beta-catenin (β-catenin)", "test": "beta-catenin western blot in colorectal cancer cells", "format": "cell-based", "details": "0, 0.125, 0.25, 0.5 nM, 24 hours; as concentration increased", "protocol": "At first, after treating niclosamide of nM units at concentrations of 0 nM, 0.125 nM, 0.25 nM and 0.5 nM to colorectal cancer cells for 24 hours, the beta-catenin (β-catenin) activity and TCF/LEF reporter (Topflash) activity of colorectal cancer cells were measured.\nFor beta-catenin, western blot was performed using β-catenin (#610154, BD Transduction, 1:5,000) antibody, and as a result, as shown in B (left) of FIG. 1, expression of beta-catenin in colorectal cancer cells was reduced as the concentration of treated niclosamide was increased."}}}
{"smiles": "O=C(Nc1ccc([N+](=O)[O-])cc1Cl)c1cc(Cl)ccc1O", "note": "[niclosamide]", "values": [{"measurement": "interaction between recombinant GSK3 and synthesized Axin peptide", "setting": "[1]", "value": "inhibited in proportion to the administration concentration"}, {"measurement": "TCF/LEF transcriptional activity increased by mutant APC", "setting": "[2]", "value": "reduced"}, {"measurement": "amount of E-cadherin in tumor", "setting": "Snail, E-cadherin [3]", "value": "increased"}, {"measurement": "presence of Snail in tumor", "setting": "Snail, E-cadherin [3]", "value": "reduced"}, {"measurement": "GSK3 which bound to Axin2", "setting": "Axin2-GSK3 complex", "value": "reduced"}, {"measurement": "E-cadherin (promoter activity)", "setting": "Snail, E-cadherin [4]; dual luciferase assay", "value": "increased"}, {"measurement": "expression of Snail", "setting": "Snail, E-cadherin [4]; western blot", "value": "reduced"}, {"measurement": "tumor growth of colorectal cancer cells", "setting": "HCT116 and SW480 cells", "value": "significantly inhibited"}, {"measurement": "apoptosis", "setting": "[5]; nM concentration", "value": "did not occur"}, {"measurement": "death of colorectal cells", "setting": "[5]; μM concentration level", "value": "induced death"}, {"measurement": "expression of beta-catenin", "setting": "beta-catenin (β-catenin)", "value": "reduced"}]}
